Legend:
hepatitis B virus [1] = assay: HBsAg in blood serum of AdHBV-infected mice; assay type: in vivo; conditions: intravenous, 20 mg/ml, FIG. 4a
Procedure: Intravenous injection of […] and Pifithrin-μ can successfully reduce the hepatitis B surface antigen (HBsAg) in the blood serum of mice, wherein the mice are continuously infected by hepatitis B virus in an adenovirus genome transfer technology (AdHBV). Each group has three mice. The experiment design is as follows: inject AdHBV into mice continuously for 28 days; respectively inject a mock medication, 20 mg/ml […], and 20 mg/ml Pifithrin-μ into the mice intravenously; collect the samples of the blood serum and livers for serological and pathological analyses.

liver cell line WT = assay: Toxicity to liver cells, WT cell line
liver cell line SNAP = assay: Toxicity to liver cells, SNAP cell line
liver cell line Pre-S2 = assay: Toxicity to liver cells, Pre-S2 cell line; assay type: cell-based
hepatitis B virus [2] = assay: HBsAg-positive liver cells in liver sections of mice; conditions: month-long treatment, FIG. 5b
[3] = Liver function test (GPT) in mice; assay type: in vivo; conditions: FIG. 4b
Text: GPT (Glutamate Pyruvate Transaminase) is used to monitor the liver function of the mice.

parental NeHepLxHT = assay: Selective cytotoxicity in co-culture, parental cells; assay type: cell-based; conditions: 40 μM, 24 hours, FIG. 3b
Procedure: […]. The LHBs-positive cells (SNAP cells 505) are labeled by green fluorescence and co-cultured with unlabeled parental NeHepLxHT. The group of the mixed cells is processed with 40 μM VER-155008 and then periodically recorded at time points separated by a longer interval of time for 48 hours. The observed cellular quantities of the unlabeled cells (parental cells) and the green-labeled cells (LHBs-infected cells) are used to reveal typical cellular apoptosis. […].

HSP90 = HSP90 (Homo sapiens, UniProt P08238); conditions: selectivity over HSP90; cited from earlier work
Chain of HSP90 (P08238 whole entry, species assumed): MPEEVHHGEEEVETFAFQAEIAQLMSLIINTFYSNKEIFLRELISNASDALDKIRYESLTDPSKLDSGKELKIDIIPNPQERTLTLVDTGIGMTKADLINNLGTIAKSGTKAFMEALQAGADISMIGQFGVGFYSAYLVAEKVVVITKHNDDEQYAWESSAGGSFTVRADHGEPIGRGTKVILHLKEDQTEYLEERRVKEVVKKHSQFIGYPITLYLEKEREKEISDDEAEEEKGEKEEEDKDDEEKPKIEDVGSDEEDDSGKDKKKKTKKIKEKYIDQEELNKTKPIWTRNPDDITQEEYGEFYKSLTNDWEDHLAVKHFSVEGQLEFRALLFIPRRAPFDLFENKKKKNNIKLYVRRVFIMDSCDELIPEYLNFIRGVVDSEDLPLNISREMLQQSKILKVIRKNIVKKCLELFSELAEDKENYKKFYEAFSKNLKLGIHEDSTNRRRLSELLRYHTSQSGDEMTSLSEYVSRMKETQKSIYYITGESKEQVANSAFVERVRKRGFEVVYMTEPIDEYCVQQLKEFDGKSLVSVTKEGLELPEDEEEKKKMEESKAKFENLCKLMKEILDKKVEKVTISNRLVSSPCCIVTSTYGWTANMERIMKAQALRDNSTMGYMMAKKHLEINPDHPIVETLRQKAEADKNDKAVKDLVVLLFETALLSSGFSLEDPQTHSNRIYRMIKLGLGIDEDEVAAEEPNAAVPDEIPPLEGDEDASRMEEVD

[4] = test system: LHBs-positive cells (SNAP cells 505) expressing HBV-LHBs; assay: Selective cytotoxicity in co-culture, LHBs-positive cells; assay type: cell-based; conditions: 40 μM
Procedure: With elapse of time, use a microscope to observe the selective cytotoxicity of VER-155008 to the cells expressing HBV-LHBs (hepatitis B virus large S protein). The LHBs-positive cells (SNAP cells 505) are labeled by green fluorescence and co-cultured with unlabeled parental NeHepLxHT. The group of the mixed cells is processed with 40 μM VER-155008 and then periodically recorded at time points separated by a longer interval of time for 48 hours. The observed cellular quantities of the unlabeled cells (parental cells) and the green-labeled cells (LHBs-infected cells) are used to reveal typical cellular apoptosis.

SMILES | levels of HBsAg in the blood serums (hepatitis B virus [1]) | IC50 (liver cell line WT) [µM] | IC50 (liver cell line SNAP) [µM] | IC50 (liver cell line Pre-S2) [µM] | HBcAg-positive liver cells (hepatitis B virus [2]; high dosage (40 mg/Kg)) | levels of GPT in the blood serums [3] | survival of parental cells (parental NeHepLxHT) | effect to HSP70 and GRP78 relative to effect to HSP90 (HSP90) | death of LHBs-positive cells ([4]; 24 hours, FIG. 3b) | death of LHBs-infected cells ([4]; 48 hours, FIG. 3c) | HBsAg-positive liver cells (hepatitis B virus [2]; low dosage (20 mg/Kg) and high dosage (40 mg/Kg))
NS(=O)(=O)C#Cc1ccccc1 [Pifithrin-μ, 2-Phenylethynesulfonamide] | obviously reduced | 12.2 | 17.5 | 11.8 | kill a portion of the HBcAg-positive liver cells | do not vary obviously | – | – | – | – | –
N#Cc1ccc(COC[C@H]2O[C@@H](n3c(NCc4ccc(Cl)c(Cl)c4)nc4c(N)ncnc43)[C@H](O)[C@@H]2O)cc1 [VER-155008, 5′-O-[(4-Cyanophenyl)methyl]-8-[[(3,4-dichlorophenyl)methyl]amino]-adenosine] | obviously reduced | 18 | 36.2 | 18.8 | – | do not vary obviously | still alive | over 100 times | many of the LHBs-positive cells are dead | almost all die | different effects in decreasing the HBsAg-positive liver cells

Reference: patent US9687499B2, “Method using heat shock protein inhibitor for treating hepatitis and hepatoma” (National Tsing Hua University, priority 2014, dated 2017)
